Laboratory results from patent publication US20080262011A1, “Modulator” (priority 2004, published 2008).

target: T1, CB1 receptors (Rattus norvegicus, UniProt P20272); assay: Radioligand binding assay: displacement of [3H]SR141716A from rat cerebellar homogenates; conditions: not given
T1 construct: cerebellar membranes (400 μg wet weight per tube) were thoroughly mixed in a final volume of 0.5 mL; from tissue; host or cells: rat cerebellum (Male Wistar rats), membrane homogenate
Protocol: SR141716A from rat cerebellar homogenates. […] (M).
Radioligand binding assays provide a simple measure of activity at the CB1 receptors. For functional activity, the vas deferens or cyclic 3′,5′-adenosine monophosphate (cAMP) assays described below are used. The assays are carried out with a protocol modified from the literature using the CB1 receptor antagonist [^3H] SR141716A (0.5 nM) in rat brain membranes. Male Wistar rats (150-200 g), which were allowed free access to food and water, were used. Briefly, animals were killed by cervical dislocation and cerebella dissected into ice-cold 0.25 M sucrose. Homogenates were prepared by suspension of cerebella in ice-cold 50 mM, pH 7.4 HEPES (assay) buffer using an Ultra-Turrax™ homogeniser. Homogenates were subsequently centrifuged at 45,000 rpm for 15 min at 4° C., and re-suspended in fresh ice-cold assay buffer to give a final concentration of 1 mg/mL wet weight. Compounds under test were dissolved in dimethyl sulfoxide (DMSO) and transferred to 14 mL polypropylene test tubes. [^3H] SR141617A {final concentration of approximately 0.5 nM prepared in assay buffer containing 0.1% v/v tris(2-butoxyethyl)phosphate} and cerebellar membranes (400 μg wet weight per tube) were thoroughly mixed in a final volume of 0.5 mL and incubated for 1 h at 37° C. The tubes were transferred to a Brandel filtration apparatus, 5 mL ice-cold assay buffer added, and the tube contents vacuum-aspirated through Whatman GF/C glass fibre filters. A further 5 mL of ice-cold wash buffer was added to tubes and the wash/vacuum cycle repeated a further three times. The filters were transferred to plastic Mini-PolyQ™ vials, Picofluor™ liquid scintillant added, and radioactivity (dpm) was quantified using a Beckman LS6000 Liquid Scintillation Counter. The concentrations of competing ligand (test compounds) to produce 50% displacement of the radioligand (IC50) from specific binding sites were computed using Origin™, by fitting total bound ligand (y-axis as dpm) against compound concentration (x-axis, log 10[x] as M) to the logistic equation y=a+b/[1+exp{−c(x−IC50)}]. Where a=lower asymptote, b=specific bound and c=slope function.

T1 sequence (P20272 whole entry): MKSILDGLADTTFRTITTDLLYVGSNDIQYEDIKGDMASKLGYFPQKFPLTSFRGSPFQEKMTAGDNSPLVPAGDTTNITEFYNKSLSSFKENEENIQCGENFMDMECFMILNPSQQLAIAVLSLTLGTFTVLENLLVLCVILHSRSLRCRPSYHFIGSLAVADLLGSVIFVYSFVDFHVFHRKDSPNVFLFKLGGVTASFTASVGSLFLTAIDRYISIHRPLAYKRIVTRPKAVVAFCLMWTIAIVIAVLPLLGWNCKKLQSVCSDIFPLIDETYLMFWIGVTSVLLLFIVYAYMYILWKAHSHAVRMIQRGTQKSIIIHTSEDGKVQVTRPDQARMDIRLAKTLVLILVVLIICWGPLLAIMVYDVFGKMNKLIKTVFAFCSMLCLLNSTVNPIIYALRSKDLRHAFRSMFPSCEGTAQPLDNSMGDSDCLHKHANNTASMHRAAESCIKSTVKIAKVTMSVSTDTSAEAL

With `CCCCCCC(C)(C)c1ccc(-c2cccc(NC(C)=O)c2)c(O)c1` [VSN30, N-[4′-(1,1-dimethylheptyl)-2′-hydroxy-1,1′-biphenyl-3-yl]-acetamide] as the molecule, how does the IC50 read?
Its IC50 is 24600 nM.

With `CCCCCCC(C)(C)c1ccc(-c2cc(C)cc(C)c2)c(O)c1` [VSN29, 3′,5′-Dimethyl-4-(1,1-dimethylheptyl)-1,1′-biphenyl-2-ol] as the molecule, how does the IC50 read?
Its IC50 is 200 nM.

Which IC50 does the source give for `CCCCCCC(C)(C)c1ccc(-c2cccnc2)c(O)c1` [VSN26, 5-(1,1-Dimethylheptyl)-2-pyridin-3-yl phenol] here?
Its IC50 is 3600 nM.

How did the IC50 turn out when `CCCCCCC(C)(C)c1ccc(-c2cc(Cl)cc(Cl)c2)c(O)c1` [VSN28, 3′,5′-Dichloro-4-(1,1-dimethylheptyl)-1,1′-biphenyl-2-ol] was run?
The IC50 was 2200 nM.

For `CCCCCCC(C)(C)c1ccc(-c2cccc(CO)c2)c(O)c1` [VSN31, 4-(1,1-Dimethylheptyl)-3′-(hydroxymethyl)-1,1′-biphenyl-2-ol], which IC50 is on record?
The IC50 was 1600 nM.

With `CCCCCCC(C)(C)c1ccc(-c2ccncc2)c(O)c1` [VSN27, 5-(1,1-Dimethylheptyl)-2-pyridin-4-yl phenol] as the molecule, how does the IC50 read?
Its IC50 is 1600 nM.

`CCCCCCC(C)(C)c1ccc(-c2cccc(O)c2)c(O)c1` [VSN13, 4-(1,1-Dimethylheptyl)-1,1′-biphenyl-2,3′-diol] was tested. Which IC50 did it give?
Its IC50 is 1500 nM.

same assay, conditions: displacement of [3H]SR141716A (0.5 nM), rat cerebellar membranes; read-out: IC50

With `CN(C)C(=O)CCCCC(C)(C)c1ccc(-c2cccc(O)c2)c(O)c1` [VSN32] as the molecule, how does the IC50 read?
The IC50 was 500 nM.

target: T2, central CB1 receptors (Mus musculus, UniProt P47746); assay: Psychotropic activity: adverse cannabimimetic (tetrad) effects in mice; conditions: in vivo, FIG. 6 legend
T2 construct: from tissue; host or cells: whole animal (normal mice), CNS
Protocol: Many CB1 agonists are known to induce psychotropic associated “tetrad effects” due to central binding to CB receptors [Howlett, A. C. et al, International Union of Pharmacology. XXVII, Pharmacol. Rev. 2002, 54, 161-202]. Studies were undertaken to investigate whether the compounds of the present invention also bound to central CB1 receptors. This is assessed by measuring the ability of the compounds to induce sedation, ptosis, hypomotility, catalepsy and hypothermia in normal mice [Brooks, J. W. et al, Eur. J. Pharmacol. 2002, 439, 83-92], following i.v., i.p. and oral administration.

T2 sequence (P47746 whole entry): as the sequence (P20272 whole entry) above, with E95D counted along it

For `CCCCCCC(C)(C)c1ccc(-c2cccc(O)c2)c(O)c1` [VSN13, 4-(1,1-Dimethylheptyl)-1,1′-biphenyl-2,3′-diol], which adverse cannabimimetic effects is on record?
The adverse cannabimimetic effects was “does not exhibit adverse cannabimimetic effects”.
